{"source": "patent US20070299029A1", "about": "“Hepatic stellate cell specific promoter and uses thereof” (Agency for Science, Technology and Research, priority 2005, published 2007)", "key": {"[1]": {"test_system": "T6/GFAP-lacZ cells", "assay": "tetrazolium-based proliferation assay of T6/GFAP-lacZ cells", "type": "cell-based, rat", "details": "48 hours, low serum (0.5% FBS) medium, read-out: IC50 of proliferation inhibition", "protocol": "FIG. 14 illustrates that EGCG and genistein suppressed proliferation of the T6/GFAP-lacZ cells. Cells were grown in full medium to 70-80% confluence in 96-well plates, followed by compound treatment of various concentrations (0-40 μM) in a low serum medium for 48 hours before assaying for proliferation. Signal was normalized against vehicle treatment (0 μM compound). Data was obtained from three independent experiments and presented as mean ±SE.\nHowever our genistein IC50 value for the T6/GFAP-lacZ cells was three times lower than that for the T6 cells cultured in DMEM containing 10% FBS (Kang et al., (2001) supra). Our additional data also confirmed that no significant difference in IC50 value was observed between the T6 and the T6/GFAP-lacZ cells (data not shown)."}, "[2]": {"test_system": "T6/GFAP-lacZ cells", "assay": "X-gal stained images of T6/GFAP-lacZ cells (cell number)", "type": "cell-based, rat", "details": "24 hours, low serum (0.5% FBS) DMEM", "protocol": "FIG. 15 depicts X-gal staining of T6/GFAP-lacZ cells. Incubation with A) DMSO vehicle control; B) 25 μM EGCG; and C) 40 μM genistein in a low serum DMEM for 24 hours. Images were captured after 60 min of X-gal staining;\n(§1) A lacZ reporter assay kit for cell staining (InvivoGen, CA, USA) was used to detect the reporter gene activity in T6/GFAP-lacZ cells treated with EGCG or genistein. The staining results were documented with a digital camera (DP12) attached to an Olympus inverted bright field microscope (IX51) after development for 60 min. For quantification, the β-galactosidase activity in cell extracts was measured using a chemiluminescent assay kit (Roche, Mannheim, Germany) in a 96-well plate format, according to the manufacturer's instructions. Briefly, cells were washed twice with ice-cold 1×PBS (pH 7.4), lysed for 30 minutes at room temperature with the lysis buffer, and supernatant was collected for assays. Protein concentration was determined with a BCA protein assay kit (Pierce, Ill., USA). Specific β-galactosidase activity was obtained by normalizing against total cellular protein content.\nEGCG is a major catechin from green tea leaves associated with a wide range of beneficial activities including anti-oxidation, anti-inflammation and anti-fibrosis, whereas genistein is a major flavonoid found abundantly in soy bean with anti-tumor and pro-apoptotic activities. […]"}, "[3]": {"test_system": "GFAP-lacZ transgene", "assay": "chemiluminescent β-galactosidase activity assay of GFAP-lacZ transgene expression in T6/GFAP-lacZ cells", "type": "cell-based, rat", "protocol": "(§2) Cells were initially seeded in 12-well plates in DMEM supplemented with 10% FBS and weaned to a low serum DMEM (0.5% FBS) at a confluence of 70-80% for 12 hours of adaptation. Cells were then incubated with different concentrations of compounds for various amounts of time before being assayed for β-galactosidase activity and GFAP mRNA. For compound attenuation studies, cells were treated with a pro-fibrotic cytokine (TGF-β1 or PDGF-BB) either sequentially or concurrently with a compound (EGCG or genistein). In the sequential scheme, cells were first treated with a cytokine for 1-3 days, then the cytokine-containing culture medium was replaced with a fresh medium containing a particular compound only for various times. Details of the cytokine/compound treatments can be found in the individual figure legends.\nas §1"}, "[4]": {"test_system": "endogenous rat GFAP mRNA", "assay": "real-time RT-PCR for endogenous rat GFAP mRNA in T6/GFAP-lacZ cells", "type": "cell-based", "protocol": "as §2\nTotal RNA was reverse-transcribed to cDNA using Taqman's reverse transcription reagent (Applied Biosystems, CA, USA). A total of 200 ng of RNA in 7.7 μl of nuclease-free water was added to 2 μl 10× reverse transcriptase buffer, 4.4 μl 25 mM magnesium chloride, 4 μl deoxyNTP mixtures, 1 μl random hexamers, 0.4 μl RNase inhibitor and 0.5 μl reverse transcriptase (50 U/μl) in a final reaction volume of 20 μl. The reaction was performed for 10 min at 25° C. (annealing), 30 min at 48° C. (cDNA synthesis) and 5 min at 95° C. (enzyme denaturation).\nReal-time quantitative PCR was carried out with an ABI 7500 Fast Real-time PCR System (Applied Biosystems, CA, USA). Two micro liters of sample cDNA were used in each PCR reaction, with β-actin gene as a reference for normalization. The primers and probes for rat β-actin and GFAP were ordered from Taqman's assay-on-demand database. The PCR reaction was performed under a default profile consisting of 95° C. for 20 seconds (enzyme denaturation) and 40 cycles of amplification (denaturation 3 seconds, annealing and extension 30 seconds). Some of the real-time RT-PCR reactions were separated on an agarose gel for visual confirmation of discrete products (data not shown).\nRelative quantitation of the target mRNA was calculated using the comparative threshold cycle (CT) methods as described in the User Bulletin #2 (ABI Prism 7700 Sequence Detection System). CT indicates the fractional cycle number at which the amount of amplified target reaches a fixed threshold within the linear phase of gene amplification. ΔCT, which reflects the difference between CT target and CT β-actin, is inversely correlated to the abundance of mRNA transcripts in the samples. ACT for each sample was normalized against control experiment or calibrator and expressed as ΔΔCT. Relative quantitation is given by 2^−ΔΔCT to express the up-regulation or down-regulation of the target gene under the treatments compared to the control."}, "[5]": {"details": "Yang et al. (1998); cited from earlier work"}}, "note": "Where two headings read alike, the source gives them in different places.", "data": [{"smiles": "O=C(O[C@@H]1Cc2c(O)cc(O)cc2O[C@@H]1c1cc(O)c(O)c(O)c1)c1cc(O)c(O)c(O)c1", "note": "[EGCG, epigallocatechin gallate]", "values": [{"measurement": "IC50", "setting": "[1]", "result": 31, "unit": "µM"}, {"measurement": "proliferation inhibition (fewer cells than control)", "setting": "[2]; 25 μM EGCG", "result": "significant proliferation inhibition"}, {"measurement": "PDGF-induced GFAP-lacZ elevation, % of the transgenic control", "setting": "[3]; 10 ng/ml PDGF-BB, incubation with 10 μM of EGCG for two days", "result": 60, "unit": "%"}, {"measurement": "GFAP-lacZ transgene expression (β-galactosidase activity), % of the control", "setting": "[3]; 5 μM EGCG, 2 hours", "result": 82, "unit": "%"}, {"measurement": "GFAP-lacZ transgene expression (β-galactosidase activity), % of the control", "setting": "[3]; 20 μM EGCG, 2 hours", "result": 55, "unit": "%"}, {"measurement": "GFAP-lacZ transgene expression (β-galactosidase activity), % of the control level", "setting": "[3]; 20 μM EGCG, 4 hours", "result": 73, "unit": "%"}, {"measurement": "inhibitory effect on GFAP-lacZ transgene expression", "setting": "[3]; EGCG all dosages (up to 20 μM), 24 hours", "result": "completely abolished"}, {"measurement": "β-galactosidase activity, % of TGF-β1-alone control", "setting": "[3]; concurrent: 10 ng/ml TGF-β1 with 20 μM EGCG 26 hours", "result": 66, "unit": "%"}, {"measurement": "β-galactosidase activity, % of TGF-β1-alone control", "setting": "[3]; sequential: 10 ng/ml TGF-β1 24 hours, then 20 μM EGCG 2 hours, not statistically significant", "result": 87, "unit": "%"}, {"measurement": "PDGF-induced GFAP elevation, % of the endogenous control", "setting": "[4]; 10 ng/ml PDGF, incubation with 10 μM of EGCG for two days", "result": 8, "unit": "%"}, {"measurement": "GFAP transcription, % of the control level", "setting": "[4]; 130 nM EGCG, 48 hours", "result": 34, "unit": "%"}, {"measurement": "endogenous GFAP mRNA, % of the control", "setting": "[4]; 10 μM EGCG, 24 hours (maximum suppression)", "result": 39, "unit": "%"}, {"measurement": "GFAP transcription at increasing dosages", "setting": "[4]; EGCG dosages above 130 nM up to 20 μM, 48 hours", "result": "no further suppression"}, {"measurement": "endogenous GFAP mRNA, % of TGF-β1-alone control", "setting": "[4]; concurrent: 1 ng/ml TGF-β1 with 5 μM EGCG, 56 hours", "result": 29, "unit": "%"}, {"measurement": "endogenous GFAP mRNA, % of TGF-β1-alone control", "setting": "[4]; sequential: 1 ng/ml TGF-β1 48 hours, then 5 μM EGCG 8 hours", "result": 45, "unit": "%"}, {"measurement": "half-life in human plasma", "setting": "[5]", "result": "about 5 hours"}]}, {"smiles": "O=c1c(-c2ccc(O)cc2)coc2cc(O)cc(O)c12", "note": "[genistein]", "values": [{"measurement": "IC50", "setting": "[1]; Rattus norvegicus", "result": 25, "unit": "µM"}, {"measurement": "proliferation inhibition (fewer cells than control)", "setting": "[2]; 40 μM genistein", "result": "significant proliferation inhibition"}, {"measurement": "GFAP-lacZ transgene expression (β-galactosidase activity), % of the control", "setting": "[3]; 40 μM genistein, 24 hours (largest suppression)", "result": 65, "unit": "%"}, {"measurement": "PDGF-BB-induced GFAP-lacZ, % of PDGF-BB-alone control", "setting": "[3]; concurrent: 40 μM genistein and 10 ng/ml PDGF-BB, 72 hours", "result": 48, "unit": "%"}, {"measurement": "β-galactosidase activity, % of the TGF-β1-alone control", "setting": "[3]; concurrent: 40 μM genistein and 10 ng/ml TGF-β1, 48 hours", "result": 43, "unit": "%"}, {"measurement": "PDGF-BB-induced GFAP-lacZ, % of PDGF-BB-alone control", "setting": "[3]; sequential: 10 ng/ml PDGF-BB 48 hours, then 40 μM genistein 24 hours", "result": 79, "unit": "%"}, {"measurement": "suppressing effect on TGF-β1-induced β-galactosidase activity", "setting": "[3]; sequential: 10 ng/ml TGF-β1 24 hours, then 40 μM genistein 24 hours", "result": "negligible"}, {"measurement": "effect on endogenous GFAP mRNA", "setting": "[4]; 10 μM genistein, time course 0-72 hours", "result": "less predictable, ranging from suppression at 24 hours to induction at 72 hours"}, {"measurement": "endogenous GFAP mRNA, % of the control", "setting": "[4]; 20 μM genistein, 8 hours", "result": 23, "unit": "%"}, {"measurement": "endogenous GFAP mRNA, % of the control", "setting": "[4]; 20 μM genistein, 72 hours", "result": 43, "unit": "%"}, {"measurement": "TGF-β1-induced GFAP transcription, % of the control", "setting": "[4]; concurrent: 20 μM genistein and 1 ng/ml TGF-β1, 56 hours", "result": 14, "unit": "%"}, {"measurement": "endogenous GFAP transcription, % of the PDGF-BB-alone control", "setting": "[4]; concurrent: 20 μM genistein and 10 ng/ml PDGF, 48 hours", "result": 6, "unit": "%"}, {"measurement": "reliable inhibitory concentration for GFAP mRNA", "setting": "[4]; genistein dose experiment, 48 hours", "result": "higher than 10 μM"}, {"measurement": "TGF-β1-induced GFAP transcription, % of the control", "setting": "[4]; sequential: 1 ng/ml TGF-β1 48 hours, then 20 μM genistein 8 hours", "result": 26, "unit": "%"}, {"measurement": "endogenous GFAP transcription, % of the PDGF-BB-alone control", "setting": "[4]; sequential: 10 ng/ml PDGF 24 hours, then 20 μM genistein 24 hours", "result": 8.6, "unit": "%"}]}]}
